Results from patent EP0502418A1, “Use of levemopamil for the manufacture of a medicament for the treatment of alcohol abuse” (priority 1991, dated 1992).

Experiments:
[1] = in vivo; cited from earlier work
[2] = system: P rats; experiment: Alcohol and water intake in P rats, three doses of levemopamil (Example 6); assay type: in vivo
Experimental: Levemopamil and a vehicle were administered in eight P rats obtained from the Indiana Alcohol Research Center at the University of Indiana School of Medicine, as described in Example 5. After establishing a stable baseline for alcohol and water intake, Each animal was injected twice (9:15 and 16:00 hours) with either one of three doses of levemopamil (3.3, 10, and 20 mg/Kg) or an equal volume of the vehicle (a solution of 1 ml absolute ethanol and 4 ml distilled water. Water and alcohol intake were monitored. The amount of alcohol and water intake was recorded twice daily before each administration of vehicle or levemopamil and continued during the drug washout periods.

[3] = system: alcohol preferring Wistar rats; experiment: Alcohol, water, total fluid and food intake in alcohol preferring (P) rats, single dose level (Example 5); assay type: in vivo
Experimental: Levemopamil was administered in eight selectively-bred adult male alcohol preferring Wistar rats (hereinafter "P") obtained from the Indiana Alcohol Research Center at the University of Indiana School of Medicine.
These lines of rats have been developed genetically through selected breeding by Lumeng et al., New strains of rats with alcohol preference and nonpreference. In: Thurman et al., Eds. Alcohol and Aldehyde Metabolizing Systems. Vol. 3. New York: Academic Press, 1977. pp. 537-544. The P rats prefer to drink at least 5g/Kg body weight/day of a 10% (v/v) ethanol solution in a free-choice situation with food and water available. These rats have been widely used as an animal model of alcoholism. See, Tabakoff et al., Biochemical Pharmacology of Alcohol. Meltzer, Ed. In: Psychopharmacology: The Third Generation of Progress. New York: Raven Press, 1978. pp.1521-1526.
The criteria for classification of P rats was that the average daily intake of ethanol (10%v/v) in P rats should be equal or greater than 5g/Kg body weight/day and the ethanol to water intake ratio should be equal or greater than 2:1.
After establishing a stable baseline for alcohol and water intake, Each animal was injected twice (9:30 and 16:30 hours) with a 10 mg/Kg dosage of levemopamil or an equal volume of the vehicle. Water, alcohol and food intake were monitored.

[4] = compared with verapamil; cited from earlier work

In the case of CC(C)C(C#N)(CCCN(C)CCc1ccccc1)c1ccccc1 (centres unmarked) [levemopamil, 2-isopropyl-5-(methylphenethylamino)-2-phenylvaleronitrile], the “passage of the blood/brain barrier by brain uptake index (BUI)” value [1] is given as “more rapidly and in considerably larger amounts than does verapamil”, the intake of ethanol ([2]; 10mg/Kg and 20 mg/Kg twice daily over one day, vs vehicle and base-line, Figure 5) is given as “significantly reduced” and the intake of water ([2]; 10mg/Kg and 20 mg/Kg twice daily over one day, vs vehicle and base-line, Figure 6) is given as “significantly increased”. The “Alcohol intake during the drug washout periods” value ([2]; drug washout periods after dosing) was “returned to base-line levels”, the ethanol intake ([2]; low dose 3.3mg/Kg, injected twice, Figure 5) was “did not induce a significant change” and the water intake ([2]; low dose 3.3mg/Kg, injected twice, Figure 6) was “did not induce a significant change”. The “alcohol intake or consumption” value ([3]; 10 mg/Kg injected twice (9:30 and 16:30 hours), vs baseline and vehicle, Figure 1) was “significantly attenuated”, the food intake ([3]; 10 mg/Kg injected twice, Figure 4) was “unaffected” and the water intake ([3]; 10 mg/Kg injected twice, vs vehicle and base-line, Figure 2) was “significantly increased”. The Total fluid intake ([3]; 10 mg/Kg injected twice, vs vehicle and base-line, Figure 3) was “decreased” and the cerebral availability [4] was “significantly higher than that of the comparison compound verapamil”.
